Measured values taken from paper PMC10831936 (iScience, 2024).
“Also recorded” adds a separate entry of the source.

Tests used:
[1] = test system: EGR1p (MAPK signaling), EGFR; assay: EGR1p pathway sensor luciferase assay, EGFR; type: cell-based, Rattus norvegicus; conditions: Rattus norvegicus, PC-12; read-out: EGFR downstream MAPK signaling IC50, EGR1p sensor luciferase
Protocol: (§1) 50,000 PC12 cells were seeded per 96-well onto poly-L-lysin (PLL)-coated plates and transfected the following day (day in vitro 1, DIV1) with assay plasmids using Lipofectamine 3000 (Thermo Fisher Scientific). For split TEV assays, plasmids (pcDNA3 or pTag4C backbone) encoding receptor-NTEV-tcs-GV, GRB2-SH2-CTEV (for ERBB receptors) or ARBB2-1-383-CTEV (for HTR2A) (all 10 ng/well), and the p10xUAS-luc2 reporter plasmid (10 ng/well) were used. For pathway assays, the receptor plasmids (15 ng/well) and pathway reporter plasmids (15 ng/well) pEGR1p-luc2 for monitoring MAPK signaling, pCRE-CMVmin-luc2 for monitoring cAMP/Ca^2+ signaling, or p6xNFAT-CMVmin-luc2 for Ca^2+ signaling were used. Transient transfections were conducted according to the manufacturer’s instructions. On DIV2, cells were starved in medium containing 1% FCS for 16 h. […] In the case of antagonist assays, compounds were added at increasing doses together with the stimulus. Cells were lysed in 1x passive lysis buffer (Promega) and subjected to a firefly luciferase assay using a self-made substrate for firefly luciferase.[100] Luciferase activity was analyzed in a Mithras LB 940 Multimode Microplate Reader (Berthold Technologies). All assays were run in 96-well plates using six replicates per condition.

EGR1p (ERBB4) = assay: EGR1p pathway sensor luciferase assay, ERBB4 transfected; type: cell-based, Rattus norvegicus; conditions: Rattus norvegicus, PC-12; PC12 cells; constant EGF-like domain 10 ng/mL; luciferase readout; read-out: ERBB4 downstream MAPK signaling IC50, EGR1p sensor luciferase
Protocol: as §1

calcium = assay: Fluo-4 AM calcium assay in PC12 cells; type: cell-based, Rattus norvegicus; conditions: stimulation mix
phospho-ERBB4 = molecular target: T1, phospho-ERBB4 (Homo sapiens, UniProt Q15303); assay: Western blot of p-ERBB4 in T-47D cells; type: cell-based; conditions: compound 1 h, EGFld 10 ng/mL 5 min, read-out: p-ERBB4 IC50, Western blot quantification
T1 construct: T-47D cells, which endogenously express ERBB4; host or cells: T-47D cells
T1 sequence (Q15303 26-1308): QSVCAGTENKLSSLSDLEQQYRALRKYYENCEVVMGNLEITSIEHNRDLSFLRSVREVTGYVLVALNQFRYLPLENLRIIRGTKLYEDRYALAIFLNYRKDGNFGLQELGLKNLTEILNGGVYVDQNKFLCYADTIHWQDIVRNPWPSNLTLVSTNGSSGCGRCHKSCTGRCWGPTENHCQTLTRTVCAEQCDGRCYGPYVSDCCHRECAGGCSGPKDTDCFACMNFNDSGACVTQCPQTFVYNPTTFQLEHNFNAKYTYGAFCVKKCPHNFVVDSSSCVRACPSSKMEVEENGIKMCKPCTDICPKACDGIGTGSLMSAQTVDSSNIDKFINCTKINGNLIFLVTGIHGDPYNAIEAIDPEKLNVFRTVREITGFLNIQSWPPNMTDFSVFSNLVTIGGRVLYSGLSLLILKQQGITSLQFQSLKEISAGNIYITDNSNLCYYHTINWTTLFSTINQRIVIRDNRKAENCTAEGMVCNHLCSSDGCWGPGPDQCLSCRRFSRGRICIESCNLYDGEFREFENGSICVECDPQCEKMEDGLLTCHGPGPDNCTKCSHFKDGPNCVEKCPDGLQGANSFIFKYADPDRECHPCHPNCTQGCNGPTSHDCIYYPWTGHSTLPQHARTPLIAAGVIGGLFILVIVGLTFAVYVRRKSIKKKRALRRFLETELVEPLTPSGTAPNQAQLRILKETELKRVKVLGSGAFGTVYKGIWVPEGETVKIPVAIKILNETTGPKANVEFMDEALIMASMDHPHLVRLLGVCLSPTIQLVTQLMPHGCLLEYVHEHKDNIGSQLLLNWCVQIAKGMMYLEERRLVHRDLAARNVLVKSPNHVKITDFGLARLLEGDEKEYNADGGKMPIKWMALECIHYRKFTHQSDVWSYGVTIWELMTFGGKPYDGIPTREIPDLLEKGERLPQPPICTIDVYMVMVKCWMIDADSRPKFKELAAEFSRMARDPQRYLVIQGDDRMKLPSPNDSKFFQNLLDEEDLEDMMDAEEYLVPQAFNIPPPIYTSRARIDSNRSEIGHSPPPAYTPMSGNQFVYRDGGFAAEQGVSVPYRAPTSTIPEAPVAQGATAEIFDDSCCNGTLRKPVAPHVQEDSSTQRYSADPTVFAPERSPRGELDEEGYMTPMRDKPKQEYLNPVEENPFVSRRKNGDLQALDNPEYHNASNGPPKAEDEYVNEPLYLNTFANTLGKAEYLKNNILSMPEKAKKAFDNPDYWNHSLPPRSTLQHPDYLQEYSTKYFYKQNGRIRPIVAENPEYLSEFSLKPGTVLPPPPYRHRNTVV
Protocol: (§2) Phosphorylation levels of EGFR were assessed[37] in A549 cells, while phosphorylation levels of ERBB4 were assessed in T-47D cells. Before stimulation experiments were performed, both cell types were starved overnight in 1% FCS and compounds were incubated for 1 h. […] For lysis, cells were washed 1x with PBS and lysed in a Triton X- lysis buffer (1% Triton X-100, 50 mM Tris pH7.5, 150 mM NaCl, 1 mM EGTA) containing the Complete protease inhibitor cocktail (Roche) and PhosSTOP phosphatase inhibitor (Roche). Briefly, cells were lysed and kept on ice for 10 min, sonicated 3x for 10 s at 4°C, and denatured for 10 min at 70°C. The Mini-PROTEAN Tetra Electrophoresis System and Trans-Blot Turbo Botting System (both Bio-Rad) were used for running and blotting protein gels. […] Total EGFR and ERBB4 protein levels were determined using an anti-EGFR antibody (RRID: AB_10920395) (clone A-10, dilution 1:1000, sc-373746, Santa Cruz Biotechnology) and an anti-ERBB4 antibody (RRID: AB_731579) (clone E200, dilution 1:1000, ab32375, Abcam). […] Tubulin levels were determined using an anti-Tubulin antibody (RRID: AB_477579) (dilution 1:2000, No. T 5168, Sigma-Aldrich). For quantification, phosphorylation levels of p-EGFR relative to EGFR as well as p-ERBB4 relative to ERBB4 were calculated using the Lukemiller protocol (http://lukemiller.org/index.php/2010/11/analyzing-gels-and-western-blots-with-image-j/). […]

phospho-ERK1/2 = assay: Western blot of p-ERK1/2 in T-47D cells (EGFld stimulated); type: cell-based; conditions: Homo sapiens, T47D, compound 1 h, EGFld 10 ng/mL 5 min, read-out: p-ERK1/2 IC50 (ERBB4), Western blot quantification
Protocol: as §2

ERBB4 = ERBB4 (Homo sapiens, UniProt Q15303); assay: ERBBprofiler barcoded split TEV assay, ERBB4; conditions: ERBB4 UAS (split TEV) IC50, PC12 cells; constant EGF 30 ng/mL, EGFld 10 ng/mL, serotonin 1 μM; 6 h; barcode readout; relative IC50
Chain of ERBB4 (Q15303 26-1308): as above

HTR2A = HTR2A (Homo sapiens, UniProt P28223); assay: ERBBprofiler barcoded split TEV assay, HTR2A
Chain of HTR2A (P28223 whole entry): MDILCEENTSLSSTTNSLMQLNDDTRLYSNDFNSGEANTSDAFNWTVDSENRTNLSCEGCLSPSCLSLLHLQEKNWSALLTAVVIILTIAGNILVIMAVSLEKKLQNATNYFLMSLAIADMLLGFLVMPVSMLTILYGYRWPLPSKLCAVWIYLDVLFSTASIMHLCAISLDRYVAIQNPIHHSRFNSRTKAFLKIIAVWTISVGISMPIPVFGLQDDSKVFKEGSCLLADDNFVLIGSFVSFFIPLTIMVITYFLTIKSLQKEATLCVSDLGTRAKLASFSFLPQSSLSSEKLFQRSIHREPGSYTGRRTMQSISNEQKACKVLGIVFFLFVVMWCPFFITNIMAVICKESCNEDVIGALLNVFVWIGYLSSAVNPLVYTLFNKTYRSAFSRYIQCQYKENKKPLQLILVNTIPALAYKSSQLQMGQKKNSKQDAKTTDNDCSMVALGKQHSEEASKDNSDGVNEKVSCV

ERBB2/3 = ERBB2/3 (Homo sapiens, UniProt P04626+P21860); assay: ERBBprofiler barcoded split TEV assay, ERBB2/3
Chain of ERBB2/3 (P04626 23-1255): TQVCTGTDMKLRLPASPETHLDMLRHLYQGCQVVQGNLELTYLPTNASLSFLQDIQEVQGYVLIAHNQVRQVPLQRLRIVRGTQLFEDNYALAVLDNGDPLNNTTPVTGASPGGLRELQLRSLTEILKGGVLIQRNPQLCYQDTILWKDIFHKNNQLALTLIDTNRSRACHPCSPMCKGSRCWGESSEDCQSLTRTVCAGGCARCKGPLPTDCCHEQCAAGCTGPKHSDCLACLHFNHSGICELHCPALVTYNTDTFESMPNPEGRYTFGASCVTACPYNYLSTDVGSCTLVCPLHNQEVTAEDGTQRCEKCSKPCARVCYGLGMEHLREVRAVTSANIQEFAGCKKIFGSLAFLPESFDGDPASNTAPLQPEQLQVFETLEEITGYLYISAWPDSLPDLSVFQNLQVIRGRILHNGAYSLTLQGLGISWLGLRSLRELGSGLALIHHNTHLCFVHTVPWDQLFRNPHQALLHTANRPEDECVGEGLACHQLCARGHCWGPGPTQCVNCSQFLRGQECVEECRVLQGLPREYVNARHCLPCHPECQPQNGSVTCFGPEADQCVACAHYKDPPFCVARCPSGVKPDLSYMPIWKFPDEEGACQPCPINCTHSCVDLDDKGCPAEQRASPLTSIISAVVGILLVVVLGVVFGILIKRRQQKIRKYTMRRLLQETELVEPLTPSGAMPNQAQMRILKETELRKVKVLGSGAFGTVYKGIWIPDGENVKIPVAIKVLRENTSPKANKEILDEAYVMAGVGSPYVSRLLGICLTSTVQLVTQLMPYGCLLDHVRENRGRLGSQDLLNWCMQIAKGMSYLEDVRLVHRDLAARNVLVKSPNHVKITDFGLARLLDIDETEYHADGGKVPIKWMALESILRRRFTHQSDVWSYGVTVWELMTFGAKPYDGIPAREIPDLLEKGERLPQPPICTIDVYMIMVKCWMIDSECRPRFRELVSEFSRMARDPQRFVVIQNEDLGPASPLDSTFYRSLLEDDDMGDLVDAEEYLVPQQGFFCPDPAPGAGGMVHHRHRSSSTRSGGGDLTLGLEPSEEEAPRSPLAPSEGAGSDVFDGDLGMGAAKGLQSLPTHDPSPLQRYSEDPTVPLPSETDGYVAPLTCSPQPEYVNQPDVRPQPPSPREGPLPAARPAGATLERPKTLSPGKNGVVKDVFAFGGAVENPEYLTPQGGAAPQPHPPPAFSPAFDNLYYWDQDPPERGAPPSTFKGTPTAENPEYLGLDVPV
Chain of ERBB2/3 (P21860 20-1342): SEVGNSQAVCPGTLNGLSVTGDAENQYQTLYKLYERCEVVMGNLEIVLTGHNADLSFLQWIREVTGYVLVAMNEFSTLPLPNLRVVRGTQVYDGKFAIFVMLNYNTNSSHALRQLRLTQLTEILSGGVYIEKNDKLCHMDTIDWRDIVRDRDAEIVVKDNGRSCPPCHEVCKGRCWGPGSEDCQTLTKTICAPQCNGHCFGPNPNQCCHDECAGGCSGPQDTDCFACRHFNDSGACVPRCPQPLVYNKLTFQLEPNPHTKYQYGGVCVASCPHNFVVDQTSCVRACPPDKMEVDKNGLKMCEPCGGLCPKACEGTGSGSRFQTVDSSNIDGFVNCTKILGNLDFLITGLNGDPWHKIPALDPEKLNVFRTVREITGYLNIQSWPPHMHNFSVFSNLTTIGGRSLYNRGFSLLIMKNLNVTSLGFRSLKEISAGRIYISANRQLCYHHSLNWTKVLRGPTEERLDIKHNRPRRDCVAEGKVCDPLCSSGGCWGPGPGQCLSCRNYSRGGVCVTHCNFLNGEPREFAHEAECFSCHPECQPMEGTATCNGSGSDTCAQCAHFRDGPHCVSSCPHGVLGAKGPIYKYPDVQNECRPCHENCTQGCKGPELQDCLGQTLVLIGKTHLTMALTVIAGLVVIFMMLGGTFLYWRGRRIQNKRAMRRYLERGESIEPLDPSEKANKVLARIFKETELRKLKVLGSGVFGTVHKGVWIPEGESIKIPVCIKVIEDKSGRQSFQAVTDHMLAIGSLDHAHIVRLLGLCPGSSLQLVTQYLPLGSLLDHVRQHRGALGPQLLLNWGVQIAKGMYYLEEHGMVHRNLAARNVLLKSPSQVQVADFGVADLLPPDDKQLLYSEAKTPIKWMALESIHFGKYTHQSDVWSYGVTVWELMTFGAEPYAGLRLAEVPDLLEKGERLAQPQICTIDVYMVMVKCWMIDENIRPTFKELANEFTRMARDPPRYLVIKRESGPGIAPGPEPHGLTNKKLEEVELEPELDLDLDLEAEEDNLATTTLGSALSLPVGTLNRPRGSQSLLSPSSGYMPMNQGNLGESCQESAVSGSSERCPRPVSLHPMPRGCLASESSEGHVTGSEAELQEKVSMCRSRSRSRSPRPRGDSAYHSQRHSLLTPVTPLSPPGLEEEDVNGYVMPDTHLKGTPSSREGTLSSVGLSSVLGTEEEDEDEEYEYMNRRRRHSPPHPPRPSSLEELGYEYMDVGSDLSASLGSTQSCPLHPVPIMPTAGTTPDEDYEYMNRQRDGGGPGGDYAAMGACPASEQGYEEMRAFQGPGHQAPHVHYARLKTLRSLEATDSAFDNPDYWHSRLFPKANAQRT

HTR2A NFAT = assay: ERBBprofiler barcoded NFAT pathway sensor, HTR2A co-transfected; conditions: Rattus norvegicus, PC-12, 6 h, read-out: HTR2A NFAT IC50
ERBB4 EGR1p = assay: ERBBprofiler barcoded EGR1p pathway sensor, ERBB4 co-transfected; conditions: Rattus norvegicus, PC-12, 6 h, read-out: ERBB4 EGR1p IC50
HTR2A EGR1p = assay: ERBBprofiler barcoded EGR1p pathway sensor, HTR2A co-transfected; conditions: Rattus norvegicus, PC-12, 6 h, read-out: HTR2A EGR1p IC50
ERBB2/3 EGR1p = assay: ERBBprofiler barcoded EGR1p pathway sensor, ERBB2/3 co-transfected; conditions: Rattus norvegicus, PC-12, 6 h, read-out: ERBB2/3 EGR1p IC50
[2] = test system: ERBB receptors, HTR2A, and downstream signaling pathways; assay: ERBBprofiler multiplexed barcoded assay, overall statements across all receptor batches and sensors; conditions: 10 μM compound; PC12 cells; stimulation mix

Row | SMILES | IC50 [1] | IC50 (EGR1p (ERBB4)) | effect on calcium levels (Fluo-4 AM) (calcium) | IC50 (phospho-ERBB4) | IC50 (phospho-ERK1/2) | IC50 (ERBB4) | IC50 (HTR2A) | IC50 (ERBB2/3) | IC50 (HTR2A NFAT) | IC50 (ERBB4 EGR1p) | IC50 (HTR2A EGR1p) | IC50 (ERBB2/3 EGR1p) | CRE sensor response at high compound concentration (barcoded) [2]
1 | COc1cc2ncnc(Nc3cccc(Cl)c3)c2cc1OC [AG1478, AG-1478 (Tyrphostin AG-1478)] | 94 nM | 378 nM | did not cause any increase | 100 nM | 147 nM | 654 nM | 17 nM | 202 nM | 64 nM | 47 nM | 32 nM | 30 nM | did not cause any increased CRE sensor activities
2 | CCOc1cc2ncc(C#N)c(Nc3ccc(OCc4ccccn4)c(Cl)c3)c2cc1NC(=O)/C=C/[C@H]1CCCN1C [Pyrotinib] | 450 nM | 284 nM | but not calcium levels | 344 nM | 4990 nM | 117 nM | 184 nM | 92 nM | 576 nM | 113 nM | 160 nM | 120 nM | upregulation of the CRE sensor; also recorded: upregulated CRE sensor response
